pIC50: −log10 of the molar value.
Columns and labels:
[1] = test system: HepG2; test: Antiproliferative activity against human HepG2 cells assessed as reduction in cell viability measured after 48 hrs by MTT assay; format: functional, cell-based; conditions: HepG2, 48 h
[2] = test system: HeLa; test: cells; conditions: Homo sapiens, 48 h
Description: Antiproliferative activity against human HeLa cells assessed as reduction in cell viability measured after 48 hrs by MTT assay

[3] = test system: B16-F10; test: Antiproliferative activity against mouse B16-F10 cells assessed as reduction in cell viability measured after 48 hrs by MTT assay; format: functional, cell-based; conditions: B16-F10, 48 h
[4] = test system: MCF7; test: cells; conditions: Homo sapiens, MCF7, 48 h
Description: Antiproliferative activity against human MCF7 cells assessed as reduction in cell viability measured after 48 hrs by MTT assay

[5] = Inhibition of pig brain tubulin polymerization by spectrophotometric method; format: tissue-based, Sus scrofa

| Compound | pIC50 [1] | pIC50 [2] | pIC50 [3] | pIC50 [4] | pIC50 [5] |
| --- | --- | --- | --- | --- | --- |
| CCCCN(c1ccc(F)c(Cl)c1)c1cccc2ncccc12 | 4.57 | 4.49 | 4.53 | 4.47 |  |
| CCCCN(c1cc(OC)c(OC)c(OC)c1)c1c2ccccc2nc2ccccc12 | 5.45 | 5.28 | 5.33 | 5.35 |  |
| CN(c1ccc(C#N)cc1)c1cccc2ncccc12 | 4.54 | 4.44 | 4.60 | 4.51 |  |
| CCCCN(c1ccccc1)c1cccc2ncccc12 | 4.65 | 4.52 | 4.57 | 4.70 |  |
| CCCCN(c1ccc(OC)cc1)c1c2ccccc2nc2ccccc12 | 5.46 | 5.06 | 5.19 | 5.15 |  |
| CCCCN(c1cc(OC)c(OC)c(OC)c1)c1ccnc(C)n1 | 4.78 | 4.77 | 4.71 | 4.70 |  |
| COc1cc(Nc2ccnc(C)n2)cc(OC)c1OC | 5.09 | 4.97 | 5.00 | 4.94 |  |
| CN(c1ccccc1)c1cccc2ncccc12 | 4.80 | 4.62 | 4.74 | 4.69 |  |
| COc1ccc(Nc2cccc3ncccc23)cc1 | 5.42 | 5.38 | 5.34 | 5.33 |  |
| COc1cc(N(C)c2cccc3ncccc23)cc(OC)c1OC | 5.28 | 5.08 | 5.18 | 5.20 |  |
| COc1ccc(N(C)c2c3ccc(Cl)cc3nc3ccc(OC)cc23)cc1 | 5.14 | 5.05 | 5.09 | 5.11 |  |
| COc1ccc(Nc2c3ccccc3nc3ccccc23)cc1 | 5.83 | 5.44 | 5.67 | 5.91 |  |
| COc1cc(Nc2ccnc(C)c2)cc(OC)c1OC | 4.94 | 4.79 | 4.72 | 4.88 |  |
| CN(c1ccc(F)c(Cl)c1)c1cccc2ncccc12 | 4.70 | 4.51 | 4.59 | 4.63 |  |
| COc1ccc(/C=C\c2cc(OC)c(OC)c(OC)c2)cc1O [COMBRETASTATIN A4] |  | 7.64 | 7.85 | 7.72 | 5.74 |
| Fc1ccc(Nc2cccc3ncccc23)cc1Cl | 4.49 | 4.35 | 4.42 | 4.44 |  |
| COc1cc(Nc2cccc3ncccc23)cc(OC)c1OC | 6.11 | 5.55 | 5.89 | 5.94 |  |
| COc1ccc(Nc2c3ccc(Cl)cc3nc3ccc(OC)cc23)cc1 | 5.50 | 5.14 | 5.30 | 5.29 |  |
| CCCCN(c1ccc(OC)cc1)c1ccnc(C)c1 | 4.73 | 4.71 | 4.70 | 4.65 |  |
| CCCCN(c1ccc(OC)cc1)c1cccc2ncccc12 | 5.86 | 5.51 | 5.61 | 5.42 |  |
| COc1ccc(Nc2ccnc(C)c2)cc1 | 4.83 | 4.68 | 4.78 | 4.68 |  |
| COc1ccc(N(C)c2ccnc(C)n2)cc1 | 5.86 | 5.21 | 5.39 | 5.27 |  |
| CCCCN(c1ccc(OC)cc1)c1ccnc(C)n1 | 5.17 | 5.07 | 5.04 | 5.03 |  |
| COc1cc(N(C)c2ccnc(C)n2)cc(OC)c1OC | 4.90 | 4.79 | 4.81 | 4.84 |  |

Further compounds by rising pIC50 [1], results first:

| pIC50 [1] | pIC50 [2] | pIC50 [3] | pIC50 [4] | Compound | pIC50 [5] |
| --- | --- | --- | --- | --- | --- |
| 4.43 | 4.36 | 4.39 | 4.45 | N#Cc1ccc(Nc2cccc3ncccc23)cc1 |  |
| 4.52 | 4.37 | 4.48 | 4.53 | CCCCN(c1ccc(C#N)cc1)c1cccc2ncccc12 |  |
| 4.57 | 4.51 | 4.54 | 4.58 | c1ccc(Nc2cccc3ncccc23)cc1 |  |
| 4.73 | 4.85 | 4.65 | 4.81 | COc1cc(N(C)c2ccnc(C)c2)cc(OC)c1OC |  |
| 4.81 | 4.77 | 4.74 | 4.76 | CCCCN(c1ccnc(C)c1)c1cc(OC)c(OC)c(OC)c1 |  |
| 4.81 | 4.73 | 4.81 | 4.88 | COc1ccc(N(C)c2ccnc(C)c2)cc1 |  |
| 4.81 | 4.76 | 4.83 | 4.79 | CCCCN(c1cc(OC)c(OC)c(OC)c1)c1ccnc2cc(Cl)ccc12 |  |
| 4.94 | 4.79 | 4.87 | 4.84 | COc1cc(N(C)c2ccnc3cc(Cl)ccc23)cc(OC)c1OC |  |
| 5.09 | 5.01 | 5.04 | 5.04 | CCCCN(c1ccc(OC)cc1)c1c2ccc(Cl)cc2nc2ccc(OC)cc12 |  |
| 5.16 | 5.03 | 5.12 | 5.08 | CCCCN(c1cc(OC)c(OC)c(OC)c1)c1cccc2ncccc12 |  |
| 5.16 | 5.06 | 5.08 | 5.01 | COc1ccc(Nc2ccnc3cc(Cl)ccc23)cc1 |  |
| 5.17 | 5.06 | 5.14 | 5.03 | COc1cc(Nc2ccnc3cc(Cl)ccc23)cc(OC)c1OC |  |
| 5.17 | 4.87 | 4.97 | 4.90 | COc1ccc(Nc2ccnc(C)n2)cc1 |  |
| 5.24 | 5.19 | 5.16 | 5.15 | CCCCN(c1ccc(OC)cc1)c1ccnc2cc(Cl)ccc12 |  |
| 5.28 | 5.09 | 5.16 | 5.18 | COc1ccc2nc3cc(Cl)ccc3c(Nc3cc(OC)c(OC)c(OC)c3)c2c1 |  |
| 5.35 | 5.17 | 5.18 | 5.25 | COc1cc(Nc2c3ccccc3nc3ccccc23)cc(OC)c1OC |  |
| 5.38 | 5.19 | 5.24 | 5.29 | COc1ccc(N(C)c2c3ccccc3nc3ccccc23)cc1 |  |
| 5.46 | 5.22 | 5.33 | 5.31 | CCCCN(c1cc(OC)c(OC)c(OC)c1)c1c2ccc(Cl)cc2nc2ccc(OC)cc12 |  |
| 5.55 | 5.40 | 5.42 | 5.50 | COc1ccc2nc3cc(Cl)ccc3c(N(C)c3cc(OC)c(OC)c(OC)c3)c2c1 |  |
| 5.74 | 5.57 | 5.86 | 5.69 | COc1cc(N(C)c2c3ccccc3nc3ccccc23)cc(OC)c1OC |  |
| 6.03 | 5.57 | 5.86 | 5.35 | COc1ccc(N(C)c2ccnc3cc(Cl)ccc23)cc1 |  |

Reference: ChEMBL document CHEMBL4823314, “Design, synthesis and biological evaluation of novel acridine and quinoline derivatives as tubulin polymerization inhibitors with anticancer activities” (Bioorg Med Chem, 2021)
